# From PubChem BioAssay (NCI)
#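 The concentration for 50% growth inhibition is given as GI50. TGI is the concentration that stops growth completely.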
# Experiments:
# Experiment in all cases: NCI anticancer screen, dose series, 384-well format
# EKVX NSCLC = tested on: EKVX NSCLC
# HCT-116 colon = tested on: HCT-116 colon
# T-47D breast = tested on: T-47D breast
# 786-0 renal = tested on: 786-0 renal
# K-562 leukemia = tested on: K-562 leukemia
# HS 578T breast = tested on: HS 578T breast
# NCI/ADR-RES ovarian = tested on: NCI/ADR-RES ovarian
# NCI-H460 NSCLC = tested on: NCI-H460 NSCLC
# HT29 colon = tested on: HT29 colon
# UO-31 renal = tested on: UO-31 renal
# M14 melanoma = tested on: M14 melanoma
# A549 NSCLC = tested on: A549 NSCLC
# OVCAR-4 ovarian = tested on: OVCAR-4 ovarian
# UACC-257 melanoma = tested on: UACC-257 melanoma
# NCI-H522 lung = tested on: NCI-H522 lung
# ACHN renal = tested on: ACHN renal
# SF-539 CNS = tested on: SF-539 CNS
# CAKI-1 renal = tested on: CAKI-1 renal
# MDA-MB-468 breast = tested on: MDA-MB-468 breast
# HL-60(TB) leukemia = tested on: HL-60(TB) leukemia
# SW-620 colon = tested on: SW-620 colon
# MCF7 breast = tested on: MCF7 breast
# SK-MEL-28 melanoma = tested on: SK-MEL-28 melanoma
# MDA-MB-435 melanoma = tested on: MDA-MB-435 melanoma
# HCT-15 colon = tested on: HCT-15 colon
# U251 glioblastoma = tested on: U251 glioblastoma
# NCI-H23 lung = tested on: NCI-H23 lung
# MDA-MB-231 breast = tested on: MDA-MB-231 breast
# A498 renal = tested on: A498 renal
# SK-MEL-5 melanoma = tested on: SK-MEL-5 melanoma
# SF-268 CNS = tested on: SF-268 CNS
# NCI-H226 lung = tested on: NCI-H226 lung
# RXF 393 renal = tested on: RXF 393 renal
# NCI-H322M lung = tested on: NCI-H322M lung
# MOLT-4 leukemia = tested on: MOLT-4 leukemia
# SK-OV-3 ovarian = tested on: SK-OV-3 ovarian
# SR leukemia = tested on: SR leukemia
# RPMI-8226 leukemia = tested on: RPMI-8226 leukemia
# PC-3 prostate = tested on: PC-3 prostate
# MALME-3M melanoma = tested on: MALME-3M melanoma
# OVCAR-8 ovarian = tested on: OVCAR-8 ovarian
# LOX IMVI melanoma = tested on: LOX IMVI melanoma
# SN12C renal = tested on: SN12C renal
# HOP-62 NSCLC = tested on: HOP-62 NSCLC
# BT-549 breast = tested on: BT-549 breast
# HCC-2998 colon = tested on: HCC-2998 colon
# SF-295 CNS = tested on: SF-295 CNS
# SNB-19 CNS = tested on: SNB-19 CNS
# OVCAR-3 ovarian = tested on: OVCAR-3 ovarian
# CCRF-CEM leukemia = tested on: CCRF-CEM leukemia
# COLO 205 colon = tested on: COLO 205 colon
# SNB-75 CNS = tested on: SNB-75 CNS
# HOP-92 NSCLC = tested on: HOP-92 NSCLC
# DU-145 prostate = tested on: DU-145 prostate
# TK-10 renal = tested on: TK-10 renal
# IGROV1 ovarian = tested on: IGROV1 ovarian
# KM12 colon = tested on: KM12 colon
# UACC-62 melanoma = tested on: UACC-62 melanoma
smiles,measurement,setting,value
COc1cc2c(Nc3ccc(Cl)c(Cl)c3F)ncnc2cc1OCC1C[C@@H]2CN(C)C[C@@H]2C1 (stereo partly specified),GI50,EKVX NSCLC,47.2 nM
same,TGI,EKVX NSCLC,1130 nM
same,GI50,HCT-116 colon,1390 nM
same,TGI,HCT-116 colon,2720 nM
same,GI50,T-47D breast,1020 nM
same,TGI,T-47D breast,2230 nM
same,GI50,786-0 renal,710 nM
same,TGI,786-0 renal,2030 nM
same,GI50,K-562 leukemia,51 nM
same,TGI,K-562 leukemia,181 nM
same,GI50,HS 578T breast,1080 nM
same,TGI,HS 578T breast,2280 nM
same,GI50,NCI/ADR-RES ovarian,1400 nM
same,TGI,NCI/ADR-RES ovarian,2800 nM
same,GI50,NCI-H460 NSCLC,1330 nM
same,TGI,NCI-H460 NSCLC,2620 nM
same,GI50,HT29 colon,598 nM
same,TGI,HT29 colon,1920 nM
same,GI50,UO-31 renal,252 nM
same,TGI,UO-31 renal,1650 nM
same,GI50,M14 melanoma,1650 nM
same,TGI,M14 melanoma,3020 nM
same,GI50,A549 NSCLC,974 nM
same,TGI,A549 NSCLC,2160 nM
same,GI50,OVCAR-4 ovarian,1360 nM
same,TGI,OVCAR-4 ovarian,3150 nM
same,GI50,UACC-257 melanoma,208 nM
same,TGI,UACC-257 melanoma,409 nM
same,GI50,NCI-H522 lung,80.1 nM
same,TGI,NCI-H522 lung,1440 nM
same,GI50,ACHN renal,69.1 nM
same,TGI,ACHN renal,1280 nM
same,GI50,SF-539 CNS,1140 nM
same,TGI,SF-539 CNS,2360 nM
same,GI50,CAKI-1 renal,123 nM
same,TGI,CAKI-1 renal,1600 nM
same,GI50,MDA-MB-468 breast,30.7 nM
same,TGI,MDA-MB-468 breast,162 nM
same,GI50,HL-60(TB) leukemia,1670 nM
same,TGI,HL-60(TB) leukemia,3030 nM
same,GI50,SW-620 colon,1560 nM
same,TGI,SW-620 colon,2900 nM
same,GI50,MCF7 breast,1090 nM
same,TGI,MCF7 breast,2300 nM
same,GI50,SK-MEL-28 melanoma,1450 nM
same,TGI,SK-MEL-28 melanoma,2770 nM
same,GI50,MDA-MB-435 melanoma,1690 nM
same,TGI,MDA-MB-435 melanoma,3070 nM
same,GI50,HCT-15 colon,890 nM
same,TGI,HCT-15 colon,2130 nM
same,GI50,U251 glioblastoma,1600 nM
same,TGI,U251 glioblastoma,2950 nM
same,GI50,NCI-H23 lung,1020 nM
same,TGI,NCI-H23 lung,2230 nM
same,GI50,MDA-MB-231 breast,1180 nM
same,TGI,MDA-MB-231 breast,2470 nM
same,GI50,A498 renal,940 nM
same,TGI,A498 renal,2150 nM
same,GI50,SK-MEL-5 melanoma,1220 nM
same,TGI,SK-MEL-5 melanoma,2460 nM
same,GI50,SF-268 CNS,1100 nM
same,TGI,SF-268 CNS,2300 nM
same,GI50,NCI-H226 lung,1260 nM
same,TGI,NCI-H226 lung,2700 nM
same,GI50,RXF 393 renal,512 nM
same,TGI,RXF 393 renal,1860 nM
same,GI50,NCI-H322M lung,31.7 nM
same,TGI,NCI-H322M lung,366 nM
same,GI50,MOLT-4 leukemia,1100 nM
same,TGI,MOLT-4 leukemia,2300 nM
same,GI50,SK-OV-3 ovarian,189 nM
same,TGI,SK-OV-3 ovarian,1430 nM
same,GI50,SR leukemia,415 nM
same,TGI,SR leukemia,801 nM
same,GI50,RPMI-8226 leukemia,1390 nM
same,TGI,RPMI-8226 leukemia,2680 nM
same,GI50,PC-3 prostate,1120 nM
same,TGI,PC-3 prostate,2500 nM
same,GI50,MALME-3M melanoma,1160 nM
same,TGI,MALME-3M melanoma,2380 nM
same,GI50,OVCAR-8 ovarian,1110 nM
same,TGI,OVCAR-8 ovarian,2320 nM
same,GI50,LOX IMVI melanoma,1150 nM
same,TGI,LOX IMVI melanoma,2380 nM
same,GI50,SN12C renal,161 nM
same,TGI,SN12C renal,1400 nM
same,GI50,HOP-62 NSCLC,1310 nM
same,TGI,HOP-62 NSCLC,2590 nM
same,GI50,BT-549 breast,1300 nM
same,TGI,BT-549 breast,2580 nM
same,GI50,HCC-2998 colon,1480 nM
same,TGI,HCC-2998 colon,2810 nM
same,GI50,SF-295 CNS,1680 nM
same,TGI,SF-295 CNS,3060 nM
same,GI50,SNB-19 CNS,1410 nM
same,TGI,SNB-19 CNS,2740 nM
same,GI50,OVCAR-3 ovarian,93.8 nM
same,TGI,OVCAR-3 ovarian,1520 nM
same,GI50,CCRF-CEM leukemia,1520 nM
same,TGI,CCRF-CEM leukemia,2850 nM
same,GI50,COLO 205 colon,1810 nM
same,TGI,COLO 205 colon,3280 nM
same,GI50,SNB-75 CNS,1310 nM
same,TGI,SNB-75 CNS,2590 nM
same,GI50,HOP-92 NSCLC,1150 nM
same,TGI,HOP-92 NSCLC,2370 nM
same,GI50,DU-145 prostate,557 nM
same,TGI,DU-145 prostate,2180 nM
same,GI50,TK-10 renal,156 nM
same,TGI,TK-10 renal,1230 nM
same,GI50,IGROV1 ovarian,33.2 nM
same,TGI,IGROV1 ovarian,199 nM
same,GI50,KM12 colon,1630 nM
same,TGI,KM12 colon,3010 nM
same,GI50,UACC-62 melanoma,1120 nM
same,TGI,UACC-62 melanoma,2330 nM
